Common to all, as to assay type: cell-based
For one test, the system named is HT. Put plainly: DLBCL cell line growth inhibition (Cell Titer Glo Luminescent Assay), HT. Particulars: read-out: PJ34 IC50. As for the experimental part:
(§1) 6 DLBCL cell lines were treated by increasing doses of PARP inhibitor (PJ34 hydrochloride). DLBCL cell lines growth was quantified with a Cell Titer Glo Luminescent Assay (Promega, Madison, Wis., USA) and the 50% inhibitory concentration (IC50) was determined using GraphPad Prism software (http://www.graphpad.com/scientific-software/prism/) (FIG. 7A).

For a further test, the system named is OCILY3. Nature of the test: DLBCL cell line growth inhibition (Cell Titer Glo Luminescent Assay), OCILY3. The conditions noted are these: read-out: PJ34 IC50. As for the experimental part: as §1
(In general: ATP-based viability assays read luminescence as a measure of living cells.)

In another test the test system is OCILY1. Nature of the test: DLBCL cell line growth inhibition (Cell Titer Glo Luminescent Assay), OCILY1. Particulars: read-out: PJ34 IC50. As for the experimental part: as §1
For a further test, the system named is U2932. Put plainly: DLBCL cell line growth inhibition (Cell Titer Glo Luminescent Assay), U2932. The conditions noted are these: read-out: PJ34 IC50. As for the experimental part: as §1
The next test deals with DOHH2. Put plainly: DLBCL cell line growth inhibition (Cell Titer Glo Luminescent Assay), DOHH2. The conditions noted are these: DOHH cell line (high HRR score). The procedure: as §1
The next test concerns OCILY7. Nature of the test: DLBCL cell line growth inhibition (Cell Titer Glo Luminescent Assay), OCILY7. The conditions noted are these: OCILY7 cell line (high HRR score). As for the experimental part: as §1
A further test relates to DLBCL cell lines. Nature of the test: DLBCL cell lines growth inhibition (Cell Titer Glo Luminescent Assay), panel of 6 cell lines. As for the experimental part: as §1

We go through one compound from US10676791B2, “Methods for predicting response to DNA repair pathway inhibitors in diffuse large B-cell lymphoma” (INSERM (INSTITUT NATIONAL DE LA SANTÉ ET DE LA RECHERCHE …, priority 2014, dated 2020).

For orientation: pIC50 means the IC50 on a negative log10 scale, so that one unit is a factor of ten.

pIC50: −log10 of the molar value. Read-outs that look alike come from different tables or passages of the source.

For `CN(C)CC(=O)Nc1ccc2[nH]c(=O)c3ccccc3c2c1.Cl` [PJ34, PJ34 hydrochloride], the pIC50 in the test on HT was 5.09; with OCILY3, 5.14; in the test on OCILY1, 5.12; in the test on U2932, 5.14; in the test on DOHH2, 4.82; in the test with OCILY7, 4.86. The pIC50 with DLBCL cell lines (DLBCL cell lines with a lower HRR score, read-out: median IC50) is 5.13; in the test with DLBCL cell lines (median over 6 DLBCL cell lines), 5.11. In addition, the “sensitivity to PARPi” value in the test with DLBCL cell lines (DLBCL cell lines with a high BER score, excluding the cell lines with a high HRR score) is listed as “sensitive”. Further, the “fold higher resistance to PARPi” value in the test with DLBCL cell lines (two DLBCL cell lines with high HRR score compared to cell lines with a lower HRR score) stood at 2 fold.
